According to PubChem BioAssay (NCI):
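How tested: cells in 96-well plates exposed to compound for 48 hours at five concentrations. GI50: concentration for 50% inhibition of growth. Definition used: TGI = concentration required for complete inhibition of growth.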

Assays:
Test in all cases: NCI tumour cell line growth inhibition, 48 h
TK-10 renal = system: TK-10 renal
HCC-2998 colon = system: HCC-2998 colon
NCI-H460 lung = system: NCI-H460 lung
RXF 393 renal = system: RXF 393 renal
A498 renal = system: A498 renal
MALME-3M melanoma = system: MALME-3M melanoma
MDA-MB-231 breast = system: MDA-MB-231 breast
T-47D breast = system: T-47D breast
UACC-257 melanoma = system: UACC-257 melanoma
KM12 colon = system: KM12 colon
EKVX NSCLC = system: EKVX NSCLC
HL-60(TB) leukemia = system: HL-60(TB) leukemia
SK-MEL-5 melanoma = system: SK-MEL-5 melanoma
ACHN renal = system: ACHN renal
K-562 leukemia = system: K-562 leukemia
SNB-75 CNS = system: SNB-75 CNS
SK-MEL-2 melanoma = system: SK-MEL-2 melanoma
RPMI-8226 leukemia = system: RPMI-8226 leukemia
HOP-62 NSCLC = system: HOP-62 NSCLC
HT29 colon = system: HT29 colon
SR leukemia = system: SR leukemia
UACC-62 melanoma = system: UACC-62 melanoma
OVCAR-4 ovarian = system: OVCAR-4 ovarian
NCI-H226 lung = system: NCI-H226 lung
OVCAR-3 ovarian = system: OVCAR-3 ovarian
UO-31 renal = system: UO-31 renal
HOP-92 NSCLC = system: HOP-92 NSCLC
IGROV1 ovarian = system: IGROV1 ovarian
CCRF-CEM leukemia = system: CCRF-CEM leukemia
U251 CNS = system: U251 CNS
BT-549 breast = system: BT-549 breast
COLO 205 colon = system: COLO 205 colon
SK-OV-3 ovarian = system: SK-OV-3 ovarian
NCI/ADR-RES ovarian = system: NCI/ADR-RES ovarian
LOX IMVI melanoma = system: LOX IMVI melanoma
786-0 renal = system: 786-0 renal
HCT-15 colon = system: HCT-15 colon
OVCAR-5 ovarian = system: OVCAR-5 ovarian
DU-145 prostate = system: DU-145 prostate
OVCAR-8 ovarian = system: OVCAR-8 ovarian
MOLT-4 leukemia = system: MOLT-4 leukemia
SNB-19 CNS = system: SNB-19 CNS
MCF7 breast = system: MCF7 breast
M14 melanoma = system: M14 melanoma
PC-3 prostate = system: PC-3 prostate
SF-295 CNS = system: SF-295 CNS
NCI-H522 lung = system: NCI-H522 lung
A549 NSCLC = system: A549 NSCLC
SW-620 colon = system: SW-620 colon
SK-MEL-28 melanoma = system: SK-MEL-28 melanoma
SF-268 CNS = system: SF-268 CNS
NCI-H23 lung = system: NCI-H23 lung
HCT-116 colon = system: HCT-116 colon
MDA-MB-435 = system: MDA-MB-435
SF-539 CNS = system: SF-539 CNS
SN12C renal = system: SN12C renal
CAKI-1 renal = system: CAKI-1 renal

O=[N+]([O-])c1cc([N+](=O)[O-])c(N2CCCC2)cc1NN=C(c1ccc(O)cc1)c1ccc(O)cc1
GI50 (TK-10 renal): 11.6 µM
TGI (TK-10 renal): 35.8 µM
GI50 (HCC-2998 colon): 4.12 µM
TGI (HCC-2998 colon): 14.5 µM
GI50 (NCI-H460 lung): 4.21 µM
TGI (NCI-H460 lung): 15.9 µM
GI50 (RXF 393 renal): 3.12 µM
TGI (RXF 393 renal): 12.8 µM
GI50 (A498 renal): 5.34 µM
TGI (A498 renal): 16.7 µM
GI50 (MALME-3M melanoma): 14.9 µM
TGI (MALME-3M melanoma): 35 µM
GI50 (MDA-MB-231 breast): 4.01 µM
TGI (MDA-MB-231 breast): 16 µM
GI50 (T-47D breast): 0.681 µM
TGI (T-47D breast): 4.76 µM
GI50 (UACC-257 melanoma): 13.6 µM
TGI (UACC-257 melanoma): 26.9 µM
GI50 (KM12 colon): 3.51 µM
TGI (KM12 colon): 14.1 µM
GI50 (EKVX NSCLC): 0.508 µM
TGI (EKVX NSCLC): 23.9 µM
GI50 (HL-60(TB) leukemia): 7.89 µM
TGI (HL-60(TB) leukemia): 37.5 µM
GI50 (SK-MEL-5 melanoma): 2.73 µM
TGI (SK-MEL-5 melanoma): 15.3 µM
GI50 (ACHN renal): 2.31 µM
TGI (ACHN renal): 11.7 µM
GI50 (K-562 leukemia): 2.35 µM
TGI (K-562 leukemia): 21 µM
GI50 (SNB-75 CNS): 1.34 µM
TGI (SNB-75 CNS): 6.4 µM
GI50 (SK-MEL-2 melanoma): 7.04 µM
TGI (SK-MEL-2 melanoma): 24.3 µM
GI50 (RPMI-8226 leukemia): 3.78 µM
TGI (RPMI-8226 leukemia): 24 µM
GI50 (HOP-62 NSCLC): 10.3 µM
TGI (HOP-62 NSCLC): 24.5 µM
GI50 (HT29 colon): 3.41 µM
TGI (HT29 colon): 14.5 µM
GI50 (SR leukemia): 5.98 µM
TGI (SR leukemia): 30.9 µM
GI50 (UACC-62 melanoma): 5.82 µM
TGI (UACC-62 melanoma): 19 µM
GI50 (OVCAR-4 ovarian): 4.03 µM
TGI (OVCAR-4 ovarian): 40 µM
GI50 (NCI-H226 lung): 16.9 µM
TGI (NCI-H226 lung): 45.8 µM
GI50 (OVCAR-3 ovarian): 2.41 µM
TGI (OVCAR-3 ovarian): 7.65 µM
GI50 (UO-31 renal): 5.54 µM
TGI (UO-31 renal): 18.5 µM
GI50 (HOP-92 NSCLC): 10.1 µM
TGI (HOP-92 NSCLC): 26.4 µM
GI50 (IGROV1 ovarian): 3.96 µM
TGI (IGROV1 ovarian): 16.9 µM
GI50 (CCRF-CEM leukemia): 2.17 µM
TGI (CCRF-CEM leukemia): 21.5 µM
GI50 (U251 CNS): 4.81 µM
TGI (U251 CNS): 18.3 µM
GI50 (BT-549 breast): 18.5 µM
TGI (BT-549 breast): 75.3 µM
GI50 (COLO 205 colon): 3.79 µM
TGI (COLO 205 colon): 15.5 µM
GI50 (SK-OV-3 ovarian): 7.44 µM
TGI (SK-OV-3 ovarian): 19.8 µM
GI50 (NCI/ADR-RES ovarian): 13.6 µM
TGI (NCI/ADR-RES ovarian): 37.9 µM
GI50 (LOX IMVI melanoma): 3.28 µM
TGI (LOX IMVI melanoma): 14.6 µM
GI50 (786-0 renal): 6.88 µM
TGI (786-0 renal): 19.8 µM
GI50 (HCT-15 colon): 3.98 µM
TGI (HCT-15 colon): 15.9 µM
GI50 (OVCAR-5 ovarian): 17.2 µM
TGI (OVCAR-5 ovarian): 30.9 µM
GI50 (DU-145 prostate): 7.43 µM
TGI (DU-145 prostate): 20.2 µM
GI50 (OVCAR-8 ovarian): 9.86 µM
TGI (OVCAR-8 ovarian): 60.5 µM
GI50 (MOLT-4 leukemia): 3.36 µM
TGI (MOLT-4 leukemia): > 100 µM
GI50 (SNB-19 CNS): 7.06 µM
TGI (SNB-19 CNS): 21.6 µM
GI50 (MCF7 breast): 3.55 µM
TGI (MCF7 breast): 20.1 µM
GI50 (M14 melanoma): 9.62 µM
TGI (M14 melanoma): 22.1 µM
GI50 (PC-3 prostate): 6.07 µM
TGI (PC-3 prostate): > 100 µM
GI50 (SF-295 CNS): 1.48 µM
TGI (SF-295 CNS): 5.36 µM
GI50 (NCI-H522 lung): 12.8 µM
TGI (NCI-H522 lung): 45.6 µM
GI50 (A549 NSCLC): 3.82 µM
TGI (A549 NSCLC): 16.4 µM
GI50 (SW-620 colon): 9.15 µM
TGI (SW-620 colon): 21.2 µM
GI50 (SK-MEL-28 melanoma): 3.39 µM
TGI (SK-MEL-28 melanoma): 13.8 µM
GI50 (SF-268 CNS): 2.99 µM
TGI (SF-268 CNS): 12.6 µM
GI50 (NCI-H23 lung): 9.46 µM
TGI (NCI-H23 lung): 23.3 µM
GI50 (HCT-116 colon): 4.54 µM
TGI (HCT-116 colon): 16.5 µM
GI50 (MDA-MB-435): 2.52 µM
TGI (MDA-MB-435): 14.4 µM
GI50 (SF-539 CNS): 12.4 µM
TGI (SF-539 CNS): 24.8 µM
GI50 (SN12C renal): 10.1 µM
TGI (SN12C renal): 23.3 µM
GI50 (CAKI-1 renal): 6.23 µM
TGI (CAKI-1 renal): 21.1 µM
